Source: ChEMBL document CHEMBL1687756 (Antimicrob Agents Chemother, 2010)

Assays:
[1] = Absolute bioavailability in Beagle […] at 5 mg/kg administered intramuscularly after 176 days; type: ADME, organism-based, Canis lupus familiaris; conditions: in vivo, im
[2] = Plasma concentration in female Beagle dog at 200 mg/kg, sc after 3 months; type: ADME, organism-based, Canis lupus familiaris; design: dose 200 mg/kg, route subcutaneous
[3] = Drug level in female Beagle dog spleen at 200 mg/kg administered intramuscularly after 3 months; type: ADME, organism-based, Canis lupus familiaris; design: dose 200 mg/kg, route intramuscular; conditions: im, read-out: Drug uptake
[4] = Drug level in female Beagle dog thymus at 400 mg/kg administered intramuscularly after 3 months; type: ADME, organism-based, Canis lupus familiaris; design: dose 400 mg/kg, route intramuscular; conditions: im, read-out: Drug uptake
[5] = Ratio of drug level in spleen to plasma in male Beagle dog at 200 mg/kg, sc after 1 month; type: ADME, organism-based, Canis lupus familiaris; design: dose 200 mg/kg, route subcutaneous
[6] = Ratio of drug level in spleen to plasma in male Beagle dog at 400 mg/kg, sc after 1 month; type: ADME, organism-based, Canis lupus familiaris; design: dose 400 mg/kg, route subcutaneous
[7] = Ratio of drug level in thymus to plasma in male Beagle dog at 400 mg/kg administered intramuscularly after 1 month; type: ADME, organism-based, Canis lupus familiaris; design: dose 400 mg/kg, route intramuscular; conditions: im
[8] = Plasma concentration in Beagle dog at 5 mg/kg, sc after 6 months; type: ADME, organism-based, Canis lupus familiaris; design: dose 5 mg/kg, route subcutaneous
[9] = Drug level in Beagle dog liver at 5 mg/kg, sc after 6 months; type: ADME, organism-based, Canis lupus familiaris; design: dose 5 mg/kg, route subcutaneous; conditions: read-out: Drug uptake
[10] = Ratio of drug level in liver to plasma in Beagle dog at 5 mg/kg, sc after 6 months; type: ADME, organism-based, Canis lupus familiaris; design: dose 5 mg/kg, route subcutaneous
[11] = Drug level in Beagle dog lymph node iliac at 5 mg/kg, sc after 3 months; type: ADME, organism-based, Canis lupus familiaris; design: dose 5 mg/kg, route subcutaneous; conditions: read-out: Drug uptake
[12] = Drug level in Beagle dog lymph node iliac at 5 mg/kg, sc after 6 months; type: ADME, organism-based, Canis lupus familiaris; design: dose 5 mg/kg, route subcutaneous; conditions: read-out: Drug uptake
[13] = Ratio of drug level in lymph node iliac to plasma in Beagle dog at 5 mg/kg administered intramuscularly after 1 month; type: ADME, organism-based, Canis lupus familiaris; design: dose 5 mg/kg, route intramuscular; conditions: im
[14] = Drug level in Beagle dog lymph node popliteal at 5 mg/kg, sc after 6 months; type: ADME, organism-based, Canis lupus familiaris; design: dose 5 mg/kg, route subcutaneous; conditions: read-out: Drug uptake
[15] = Drug level in Beagle dog lymph node axillar at 5 mg/kg, sc after 6 months; type: ADME, organism-based, Canis lupus familiaris; design: dose 5 mg/kg, route subcutaneous; conditions: axillary lymph node, read-out: Drug uptake
[16] = Drug level in Beagle dog lymph node mandibular at 5 mg/kg administered intramuscularly after 3 months; type: ADME, organism-based, Canis lupus familiaris; design: dose 5 mg/kg, route intramuscular; conditions: im, read-out: Drug uptake
[17] = Plasma concentration in male Beagle dog at 200 mg/kg administered intramuscularly after 1 month; type: ADME, organism-based, Canis lupus familiaris; design: dose 200 mg/kg, route intramuscular; conditions: im
[18] = Drug level in male Beagle dog spleen at 400 mg/kg, sc after 1 month; type: ADME, organism-based, Canis lupus familiaris; design: dose 400 mg/kg, route subcutaneous; conditions: read-out: Drug uptake
[19] = Plasma concentration in female Beagle dog at 200 mg/kg, sc after 1 month; type: ADME, organism-based, Canis lupus familiaris; design: dose 200 mg/kg, route subcutaneous; conditions: read-out: Drug uptake
[20] = Plasma concentration in female Beagle dog at 400 mg/kg administered intramuscularly after 1 month; type: ADME, organism-based, Canis lupus familiaris; design: dose 400 mg/kg, route intramuscular; conditions: im, read-out: Drug uptake
[21] = Drug level in female Beagle dog thymus at 200 mg/kg, sc after 1 month; type: ADME, organism-based, Canis lupus familiaris; design: dose 200 mg/kg, route subcutaneous; conditions: read-out: Drug uptake
[22] = Drug level in female Beagle dog thymus at 400 mg/kg, sc after 1 month; type: ADME, organism-based, Canis lupus familiaris; design: dose 400 mg/kg, route subcutaneous; conditions: read-out: Drug uptake
[23] = Ratio of drug level in thymus to plasma in female Beagle dog at 400 mg/kg, sc after 3 months; type: ADME, organism-based, Canis lupus familiaris; design: dose 400 mg/kg, route subcutaneous
[24] = system: Canis familiaris; assay: Toxicity in Beagle dog assessed as white deposits at 20 mg/kg, sc after 3 months; type: organism-based, Canis lupus familiaris; design: dose 20 mg/kg, route subcutaneous; conditions: in vivo, 2191.5 h
[25] = system: Canis familiaris; assay: Toxicity in Beagle dog assessed as irritation at 20 mg/kg administered intramuscularly after 3 months; type: organism-based, Canis lupus familiaris; design: dose 20 mg/kg, route intramuscular; conditions: in vivo, im, 2191.5 h
[26] = Cmax in female dog at 200 mg, sc after 29 days; conditions: in vivo
[27] = Cmax in female dog at 200 mg administered intramuscularly after 85 days; conditions: in vivo, im
[28] = Tmax in female dog at 400 mg administered intramuscularly after 85 days; conditions: in vivo, im
[29] = AUC (0 to last) in male dog at 200 mg administered intramuscularly after 85 days; conditions: plasma, im
[30] = AUC (0 to last) in female dog at 400 mg administered intramuscularly after 85 days; conditions: plasma, im

bioavailability [1]: 102% | concentration at 2191.5 h [2]: 26.8 ng/mL | concentration at 2191.5 h [3]: 22.1 ng/g | concentration at 2191.5 h [4]: 109 ng/g | Kp at 730.5 h [5]: 2 | Kp at 730.5 h [6]: 2.9 | Kp at 730.5 h [7]: 4 | concentration at 4383 h [8]: 1.3 ng/mL | concentration at 4383 h [9]: 31.1 ng/g | Kp at 4383 h [10]: 24 | concentration at 2191.5 h [11]: 16.9 ng/g | concentration at 4383 h [12]: 9.9 ng/g | Kp at 730.5 h [13]: 168 | concentration at 4383 h [14]: 5.5 ng/g | concentration at 4383 h [15]: 8.6 ng/g | concentration at 2191.5 h [16]: 10 ng/g | concentration at 730.5 h [17]: 74.5 ng/mL | concentration at 730.5 h [18]: 569 ng/g | concentration at 730.5 h [19]: 71.8 ng/g | concentration at 730.5 h [20]: 118 ng/g | concentration at 730.5 h [21]: 536 ng/g | concentration at 730.5 h [22]: 1200 ng/g | Kp at 2191.5 h [23]: 2.9 | Cmax [26]: 185 ng/mL | Cmax [27]: 1140 ng/mL | Tmax [28]: 16 h | AUC(0-t) at 2040 h [29]: 148 µg·h/mL | AUC(0-t) at 2040 h [30]: 265 µg·h/mL
Structure (SMILES): Cc1cc(/C=C/C#N)cc(C)c1Nc1ccnc(Nc2ccc(C#N)cc2)n1 [RILPIVIRINE]
Activity [24]: Non-toxic | Activity [25]: Non-toxic
